What is called IC50 is the concentration needed to halve the response being measured.

For the assay, the target named is T1, Toll-like receptor 9 (Homo sapiens, UniProt Q9NR96).
T1 sequence (Q9NR96 whole entry): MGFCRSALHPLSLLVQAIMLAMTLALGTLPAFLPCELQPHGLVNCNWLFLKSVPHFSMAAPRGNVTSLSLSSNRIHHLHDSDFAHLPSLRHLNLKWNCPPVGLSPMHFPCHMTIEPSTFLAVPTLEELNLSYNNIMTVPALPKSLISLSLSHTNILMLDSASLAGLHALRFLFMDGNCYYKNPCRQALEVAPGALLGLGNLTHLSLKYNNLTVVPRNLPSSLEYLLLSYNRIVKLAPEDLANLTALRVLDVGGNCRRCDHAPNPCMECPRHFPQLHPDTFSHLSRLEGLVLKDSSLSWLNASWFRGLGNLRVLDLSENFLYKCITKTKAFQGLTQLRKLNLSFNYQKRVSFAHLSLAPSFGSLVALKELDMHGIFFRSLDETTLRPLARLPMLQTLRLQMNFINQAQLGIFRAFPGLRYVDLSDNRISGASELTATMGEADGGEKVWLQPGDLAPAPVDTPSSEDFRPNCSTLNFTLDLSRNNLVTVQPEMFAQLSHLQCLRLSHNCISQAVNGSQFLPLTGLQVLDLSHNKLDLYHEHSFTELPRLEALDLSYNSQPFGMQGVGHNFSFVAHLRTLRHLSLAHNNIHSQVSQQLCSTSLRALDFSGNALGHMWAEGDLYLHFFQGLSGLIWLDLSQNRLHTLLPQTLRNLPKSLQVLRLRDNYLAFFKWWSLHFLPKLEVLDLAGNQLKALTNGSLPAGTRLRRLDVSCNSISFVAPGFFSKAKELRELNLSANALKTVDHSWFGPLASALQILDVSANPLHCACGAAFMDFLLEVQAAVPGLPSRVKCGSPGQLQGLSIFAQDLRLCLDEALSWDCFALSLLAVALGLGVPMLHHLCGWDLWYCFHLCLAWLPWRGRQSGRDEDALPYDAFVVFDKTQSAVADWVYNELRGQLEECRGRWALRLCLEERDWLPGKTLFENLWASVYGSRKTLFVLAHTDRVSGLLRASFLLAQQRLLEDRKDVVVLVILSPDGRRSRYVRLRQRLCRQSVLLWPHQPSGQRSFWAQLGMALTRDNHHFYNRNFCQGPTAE
The experiment in a line: Inhibition of human TLR9 expressed in HEK-Blue cells assessed as inhibition of ODN2006-induced NF-kappaB and AP-1 activation measured after 20 hrs by quanti-blue based SEAP reporter gene assay. In kind it is cell-based, HEK-Blue hTLR9. In general terms: In a reporter assay the amount or activity of a reporter protein is the signal.

Regarding `C[C@@H]1CN(c2ccc(C#N)c3ncccc23)C[C@@H]2CN(c3cccc4c3CCNC4)CCN21`, the IC50 is 54 nM.

`[2H]c1ccc2c(N3CC4CN(c5ncc(N6CCOC[C@H](N)C6)cc5C)CCN4[C@@H](C)C3)ccc(C#N)c2n1` (some centres not stated): the IC50 was determined as 70 nM.

These data come from ChEMBL document CHEMBL4673381, “Novel Hexahydro-1H-Pyrazino[1,2-a]pyrazine Compounds for Treating Autoimmune Diseases” (ACS Med Chem Lett, 2021).
